Test results as given in patent US9682931B2, “Aryloyl(oxy or amino)pentafluorosulfanylbenzene compound, pharmaceutically acceptable salt thereof, and prodrugs thereof” (UBE INDUSTRIES, LTD., priority 2013, dated 2017).
≈ marks a conversion by molar mass, not a printed value. Where a name gives a salt, the structure may show the parent alone. Read-outs that look alike come from different tables or passages of the source.

Tested on: K562 human leukemia-derived cell lines
Assay: K562 human leukemia cell-proliferation inhibition test
Type: cell-based
Procedure: K562 Human Leukemia Cell-Proliferation Inhibition Test
A cell proliferation inhibition test using K562 cells was performed. The activity in the presence of a test substance was compared to the activity in the presence of green tea polyphenol (GTP). The materials used in the test are as follows.
Cells: K562 human leukemia-derived cell lines (DS Pharma Biomedical Co., Ltd.)
Control Substance: Green Tea Polyphenols, abbreviation: GTP (LKT Laboratories, Inc.)
Culture solution: 10% equine serum-supplemented RPMI1640 medium
A test substance and a control substance were used by dissolving each of them in DMSO. To a solution (0.99 mL) containing K562 cells in a cell concentration of 20,000 cells/mL, a test substance solution or a control substance solution (0.01 mL) was added and the cells were cultured. Seventy two hours later, a part of the cells was stained with trypan blue and viable cells were counted by a counting chamber.
In Table 2, “IC50” denotes the sample concentration inhibiting 50% of cell proliferation

[1] = Homo sapiens, K562, 72 h, K562 cells, 72 hours, viable cells counted with trypan blue, read-out: IC50

Row | Compound | IC50 [1] | other results
1 | O=C(Nc1ccc(S(F)(F)(F)(F)F)cc1)c1ccnc(F)c1 [Compound 76, 4-(2-fluoropyridin-4-yl)carbonylaminopentafluorosulfanylbenzene] | 2 µg/mL (≈ 5.84 µM) | 
2 | C/C=C/Cc1cc(/C=C/C(=O)Nc2ccc(S(F)(F)(F)(F)F)cc2)cc(OC)c1O [Compound 47, 4-(4-hydroxy-5-(2-butenyl)-3-methoxycinnamoylamino)pentafluorosulfanylbenzene] | 3.5 µg/mL (≈ 7.79 µM) | 
3 | O=C(Nc1ccc(S(F)(F)(F)(F)F)cc1)c1ccncc1F [Compound 75, 4-(3-fluoropyridin-4-yl)carbonylaminopentafluorosulfanylbenzene] | 2 µg/mL (≈ 5.84 µM) | 
4 | O=C(Nc1ccc(S(F)(F)(F)(F)F)cc1)c1ccccn1 [Compound 71, 4-(pyridin-2-yl)carbonylaminopentafluorosulfanylbenzene] | 4.4 µg/mL (≈ 13.6 µM) | 
5 | O=C(Nc1ccc(S(F)(F)(F)(F)F)cc1)c1ncc[nH]1 [Compound 78, 4-(imidazol-2-yl)carbonylaminopentafluorosulfanylbenzene] | 3.4 µg/mL (≈ 10.9 µM) | 
6 | O=C(Nc1ccc(S(F)(F)(F)(F)F)cc1)c1ccccc1 [Compound 1, 4-benzoylaminopentafluorosulfanylbenzene] |  | IC50 (Homo sapiens, K562, 72 h): 1.5 µg/mL (≈ 4.64 µM)
7 | COc1ccc(/C=C/C(=O)Nc2ccc(S(F)(F)(F)(F)F)cc2)cc1O [Compound 52, 4-(3-hydroxy-4-methoxycinnamoylamino)pentafluorosulfanylbenzene] | 0.28 µg/mL (≈ 0.708 µM) | 
8 | C/C=C/COc1ccc(/C=C/C(=O)Nc2ccc(S(F)(F)(F)(F)F)cc2)cc1OC [Compound 42, 4-(4-(2-butenyloxy)-3-methoxycinnamoylamino)pentafluorosulfanylbenzene] | 1.7 µg/mL (≈ 3.78 µM) | 
9 | O=C(Nc1ccc(S(F)(F)(F)(F)F)cc1)c1ncccn1 [Compound 70, 4-(pyrimidin-2-yl)carbonylaminopentafluorosulfanylbenzene] | 1.5 µg/mL (≈ 4.61 µM) | 
10 | O=C(Nc1ccc(S(F)(F)(F)(F)F)cc1)c1cnco1 [Compound 82, 4-(oxazol-5-yl)carbonylaminopentafluorosulfanylbenzene] | 3.6 µg/mL (≈ 11.5 µM) | 
11 | O=C(/C=C/c1ccc(O)cc1O)Nc1ccc(S(F)(F)(F)(F)F)cc1 [Compound 51, 4-(2,4-dihydroxycinnamoylamino)pentafluorosulfanylbenzene] | 1.2 µg/mL (≈ 3.15 µM) | 
12 | O=C(Nc1ccc(S(F)(F)(F)(F)F)cc1)c1cccc(O)c1 [Compound 65, 4-(3-hydroxybenzoylamino)pentafluorosulfanylbenzene] | 0.92 µg/mL (≈ 2.71 µM) | 
13 | COc1ccc(/C=C/C(=O)Nc2ccc(S(F)(F)(F)(F)F)cc2)cc1OCC=C(C)C [Compound 41, 4-(3-(3-methyl-2-butenyloxy)-4-methoxycinnamoylamino)pentafluorosulfanylbenzene] | 0.81 µg/mL (≈ 1.75 µM) | 
14 | COc1cc(C(=O)Nc2ccc(S(F)(F)(F)(F)F)cc2)ccc1O [Compound 45, 4-(4-hydroxy-3-methoxybenzoylamino)pentafluorosulfanylbenzene] | 0.51 µg/mL (≈ 1.38 µM) | 
15 | O=C(Nc1ccc(S(F)(F)(F)(F)F)cc1)c1c(O)cc(O)cc1O [Compound 23, 4-(2,4,6-trihydroxybenzoylamino)pentafluorosulfanylbenzene] | 4.1 µg/mL (≈ 11 µM) | 
16 | O=C(/C=C/c1ccc2c(c1)OCO2)Nc1ccc(S(F)(F)(F)(F)F)cc1 [Compound 19, 4-(3,4-methylenedioxycinnamoylamino)pentafluorosulfanylbenzene] |  | IC50 (Homo sapiens, K562, 72 h): 0.66 µg/mL (≈ 1.68 µM)
17 | 4-(3,5-dihydroxybenzoylamino)pentafluorosulfanylbenzene [Compound 50] |  | IC50 (K562 cells, 72 hours, viable cells counted with trypan blue): 3.5 µg/mL
18 | COc1cc(/C=C/C(=O)Nc2ccc(S(F)(F)(F)(F)F)cc2)cc(OC)c1OCC=C(C)C [Compound 43, 4-(4-(3-methyl-2-butenyloxy)-3,5-dimethoxycinnamoylamino)pentafluorosulfanylbenzene] | 2.8 µg/mL (≈ 5.67 µM) | 

Row | Compound | IC50 [1] | other results
19 | O=C(Nc1ccc(S(F)(F)(F)(F)F)cc1)c1ccc(F)c(O)c1 [Compound 58, 4-(3-hydroxy-4-fluorobenzoylamino)pentafluorosulfanylbenzene] | 5.3 µg/mL (≈ 14.8 µM) | 
20 | C=CCc1cc(C(=O)Nc2ccc(S(F)(F)(F)(F)F)cc2)cc(OC)c1O [Compound 30, 4-(4-hydroxy-5-(2-propenyl)-3-methoxybenzoylamino)pentafluorosulfanylbenzene] | 0.9 µg/mL (≈ 2.2 µM) | 
21 | O=C(Oc1cccc(S(F)(F)(F)(F)F)c1)c1cc(O)c(O)c(O)c1 [Compound 8, 3-(3,4,5-trihydroxybenzoyloxy)pentafluorosulfanylbenzene] | 8.5 µg/mL (≈ 22.8 µM) | 
22 | C=CCOc1ccc(/C=C/C(=O)Nc2ccc(S(F)(F)(F)(F)F)cc2)cc1OC [Compound 38, 4-(4-(2-propenyloxy)-3-methoxycinnamoylamino)pentafluorosulfanylbenzene] | 0.6 µg/mL (≈ 1.38 µM) | 
23 | C=CCOc1ccc(C(=O)Nc2ccc(S(F)(F)(F)(F)F)cc2)cc1OC [Compound 28, 4-(4-(2-propenyloxy)-3-methoxybenzoylamino)pentafluorosulfanylbenzene] | 0.8 µg/mL (≈ 1.95 µM) | 
24 | COc1cc(C(=O)Nc2ccc(S(F)(F)(F)(F)F)cc2)ccc1N [Compound 60, 4-(4-amino-3-methoxybenzoylamino)pentafluorosulfanylbenzene] | 0.1 µg/mL (≈ 0.271 µM) | 
25 | Nc1ccc(C(=O)Nc2ccc(S(F)(F)(F)(F)F)cc2)cc1 [Compound 63, 4-(4-aminobenzoylamino)pentafluorosulfanylbenzene hydrochloride salt] |  | IC50 (Homo sapiens, K562, 72 h): 0.85 µg/mL
26 | CC(=O)Oc1cc(/C=C/C(=O)Nc2ccc(S(F)(F)(F)(F)F)cc2)cc(OC(C)=O)c1OC(C)=O [Compound 25, 4-(3,4,5-triacetoxycinnamoylamino)pentafluorosulfanylbenzene] | 6.3 µg/mL (≈ 12 µM) | 
27 | O=C(Nc1ccc(S(F)(F)(F)(F)F)cc1)c1ccc(CO)o1 [Compound 33, 4-(5-hydroxymethylfuran-2-yl)carbonylaminopentafluorosulfanylbenzene] | 2.7 µg/mL (≈ 7.87 µM) | 
28 | O=C(Nc1ccc(S(F)(F)(F)(F)F)cc1)c1cnccn1 [Compound 79, 4-(pyrazin-2-yl)carbonylaminopentafluorosulfanylbenzene] | 4.2 µg/mL (≈ 12.9 µM) | 
29 | C=CC(=O)Nc1ccc(S(F)(F)(F)(F)F)cc1 [Compound 31, 4-acryloylaminopentafluorosulfanylbenzene] |  | IC50 (Homo sapiens, K562, 72 h): 0.88 µg/mL (≈ 3.22 µM)
30 | C=CC(=O)Nc1cccc(S(F)(F)(F)(F)F)c1 [Compound 32, 3-acryloylaminopentafluorosulfanylbenzene] |  | IC50 (Homo sapiens, K562, 72 h): 4.6 µg/mL (≈ 16.8 µM)
31 | C=CCc1cc(/C=C/C(=O)Nc2ccc(S(F)(F)(F)(F)F)cc2)cc(OC)c1O [Compound 46, 4-(4-hydroxy-5-(2-propenyl)-3-methoxycinnamoylamino)pentafluorosulfanylbenzene] | 2.5 µg/mL (≈ 5.74 µM) | 
32 | O=C(Nc1ccc(S(F)(F)(F)(F)F)cc1)n1cccc1 [Compound 80, 4-(pyrrol-1-yl)carbonylaminopentafluorosulfanylbenzene] | 4.9 µg/mL (≈ 15.7 µM) | 
33 | O=C(Nc1ccc(S(F)(F)(F)(F)F)cc1)c1cc2cc(O)c(O)cc2oc1=O [Compound 74, 4-(6,7-dihydroxycoumarin-3-yl)carbonylaminopentafluorosulfanylbenzene] | 5 µg/mL (≈ 11.8 µM) | 
34 | O=C(Nc1ccc(S(F)(F)(F)(F)F)cc1)c1ccc([N+](=O)[O-])cc1 [Compound 62, 4-(4-nitrobenzoylamino)pentafluorosulfanylbenzene] | 0.78 µg/mL (≈ 2.12 µM) | 
35 | C=CCOc1cccc(C(=O)Nc2ccc(S(F)(F)(F)(F)F)cc2)c1 [Compound 64, 4-(3-allyloxybenzoylamino)pentafluorosulfanylbenzene] | 1.1 µg/mL (≈ 2.9 µM) | 
